Measurements from patent US20230357269A1 (LES LABORATOIRES SERVIER, priority 2020, published 2023).
pIC50: −log10 of the molar value.

tested on: not given; assay: not given; settings: from COCC(CCOc1ccc2c(c1)c(-c1cccc(CO)c1)nn2C1CCCCO1)NC(=O)OCc1ccccc1; other bond; cesium carbonate; acetonitrile; 4.47 mM; 90.0 °C; 6.0 h

Structure (SMILES) | ring closure, yield of all isomers
COCC1CCOc2ccc3c(c2)c(nn3C2CCCCO2)-c2cccc(c2)COC(=O)N1 (centres unmarked) | 62.3%

same assay, conditions: from O=C(NCCCOc1ccc2c(c1)c(-c1cc(Br)cc(CO)c1)nn2C1CCCCO1)OCc1ccccc1; other bond; NaH; toluene; 1.6 mM; 140.0 °C; 42.0 h

Structure (SMILES) | ring closure, yield of all isomers
O=C1NCCCOc2ccc3c(c2)c(nn3C2CCCCO2)-c2cc(Br)cc(c2)CO1 (centres unmarked) | 25.7%

biological target: human recombinant LRRK2 protein (Homo sapiens (Human), UniProt Q5S007); assay: LRRK2 Kinase Activity Assay (ADP-Glo); format: biochemical; settings: LRRK2 wt; LRRKtide peptide and ATP substrates; 1h-incubation at 37° C.
Summary of the method: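 Recombinant human LRRK2 acted on LRRKtide peptide and ATP for 1 h at 37 °C. ADP formed was detected by ADP-Glo luminescence (ATP depletion, then ADP-to-ATP conversion and luciferase). IC50s came from curve fits over 10 concentrations (N=2).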

Sequence of human recombinant LRRK2 protein (Q5S007 whole entry): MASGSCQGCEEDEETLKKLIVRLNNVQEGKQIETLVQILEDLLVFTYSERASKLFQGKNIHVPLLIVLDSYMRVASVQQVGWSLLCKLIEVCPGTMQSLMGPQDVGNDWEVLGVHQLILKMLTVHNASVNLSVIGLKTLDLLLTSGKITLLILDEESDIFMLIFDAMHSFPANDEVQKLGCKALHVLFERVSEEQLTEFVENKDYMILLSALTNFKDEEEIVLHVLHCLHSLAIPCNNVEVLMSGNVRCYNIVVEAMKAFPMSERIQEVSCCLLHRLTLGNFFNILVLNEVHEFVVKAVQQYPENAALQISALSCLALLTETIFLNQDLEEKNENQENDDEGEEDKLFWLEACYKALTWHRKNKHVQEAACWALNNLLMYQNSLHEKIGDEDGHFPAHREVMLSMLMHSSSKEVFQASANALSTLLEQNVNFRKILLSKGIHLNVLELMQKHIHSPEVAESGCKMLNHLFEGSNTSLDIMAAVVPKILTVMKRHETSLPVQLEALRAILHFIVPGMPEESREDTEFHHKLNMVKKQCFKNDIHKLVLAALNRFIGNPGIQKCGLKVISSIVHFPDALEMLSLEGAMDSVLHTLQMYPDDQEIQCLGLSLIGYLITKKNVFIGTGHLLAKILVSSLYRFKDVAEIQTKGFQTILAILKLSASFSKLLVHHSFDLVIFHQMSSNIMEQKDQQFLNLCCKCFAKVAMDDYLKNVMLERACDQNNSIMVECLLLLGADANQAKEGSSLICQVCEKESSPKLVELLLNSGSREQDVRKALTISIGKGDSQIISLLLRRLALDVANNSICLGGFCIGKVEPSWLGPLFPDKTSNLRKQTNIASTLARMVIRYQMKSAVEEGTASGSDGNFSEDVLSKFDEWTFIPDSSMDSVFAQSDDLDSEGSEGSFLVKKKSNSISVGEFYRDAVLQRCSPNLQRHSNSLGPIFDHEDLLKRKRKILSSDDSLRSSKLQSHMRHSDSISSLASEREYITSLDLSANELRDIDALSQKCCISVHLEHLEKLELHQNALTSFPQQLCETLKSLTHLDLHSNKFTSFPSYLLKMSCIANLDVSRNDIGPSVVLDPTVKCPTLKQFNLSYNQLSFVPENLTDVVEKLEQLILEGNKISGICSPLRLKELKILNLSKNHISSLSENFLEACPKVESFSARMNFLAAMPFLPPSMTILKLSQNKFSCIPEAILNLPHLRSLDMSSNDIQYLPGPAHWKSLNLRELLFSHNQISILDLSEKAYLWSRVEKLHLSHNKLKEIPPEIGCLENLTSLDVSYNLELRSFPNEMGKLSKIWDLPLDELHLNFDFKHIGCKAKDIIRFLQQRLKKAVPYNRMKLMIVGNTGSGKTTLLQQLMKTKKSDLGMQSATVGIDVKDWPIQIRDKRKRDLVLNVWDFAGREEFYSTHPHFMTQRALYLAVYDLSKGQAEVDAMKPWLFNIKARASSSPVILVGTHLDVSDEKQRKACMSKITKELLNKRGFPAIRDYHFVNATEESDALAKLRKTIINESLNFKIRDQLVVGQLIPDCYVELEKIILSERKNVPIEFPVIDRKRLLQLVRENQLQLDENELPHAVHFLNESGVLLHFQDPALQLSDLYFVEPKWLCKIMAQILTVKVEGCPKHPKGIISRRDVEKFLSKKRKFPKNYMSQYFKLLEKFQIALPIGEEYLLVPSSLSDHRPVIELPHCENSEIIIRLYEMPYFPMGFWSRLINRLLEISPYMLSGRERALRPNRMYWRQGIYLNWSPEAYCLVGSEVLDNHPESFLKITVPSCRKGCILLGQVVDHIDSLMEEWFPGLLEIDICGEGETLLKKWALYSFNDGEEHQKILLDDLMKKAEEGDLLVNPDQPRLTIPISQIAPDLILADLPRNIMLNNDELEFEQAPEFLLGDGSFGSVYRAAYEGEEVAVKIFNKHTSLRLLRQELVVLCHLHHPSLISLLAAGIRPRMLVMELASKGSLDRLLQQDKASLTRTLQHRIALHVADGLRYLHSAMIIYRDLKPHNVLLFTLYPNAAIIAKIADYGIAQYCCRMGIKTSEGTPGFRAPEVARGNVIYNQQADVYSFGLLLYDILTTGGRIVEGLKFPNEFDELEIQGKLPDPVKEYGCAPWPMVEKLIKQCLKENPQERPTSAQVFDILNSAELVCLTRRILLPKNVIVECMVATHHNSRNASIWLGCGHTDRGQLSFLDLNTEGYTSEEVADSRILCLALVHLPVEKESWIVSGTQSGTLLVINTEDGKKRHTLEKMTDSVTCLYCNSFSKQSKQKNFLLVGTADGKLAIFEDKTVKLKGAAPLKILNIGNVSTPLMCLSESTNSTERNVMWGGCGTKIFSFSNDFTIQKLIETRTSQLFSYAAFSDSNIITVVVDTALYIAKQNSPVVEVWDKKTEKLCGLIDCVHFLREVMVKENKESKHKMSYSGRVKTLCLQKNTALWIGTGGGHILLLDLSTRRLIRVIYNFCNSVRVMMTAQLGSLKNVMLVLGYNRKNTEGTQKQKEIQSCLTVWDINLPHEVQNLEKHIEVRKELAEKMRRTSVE

pIC50 | Structure (SMILES)
> 8.00 | O=C1NC[C@H](F)COc2ccc3[nH]nc(c3c2)-c2cnn(n2)CCO1 [Example 173, (12S)-12-fluoro-8,14-dioxa-4,5,10,19,20,23-hexaazatetracyclo[13.5.2.1^2,5.0^18,21]tricosa-1(20),2(23),3,15,17,21-hexaen-9-one]
> 8.00 | C[C@@H]1CCNC(=O)OCCC2=NC=C(S2)c2n[nH]c3ccc(cc23)O1 [Example 160, (13R)-13-methyl-8,14-dioxa-23-thia-4,10,19,20-tetraazatetracyclo[13.5.2.1^2,5.0^18,21]tricosa-1(20),2,4,15,17,21-hexaen-9-one]
7.00 to 8.00 | CC1OC(=O)NCCCOc2ccc3[nH]nc(c3c2)-c2cccc1n2 (centres unmarked) [Example 111, 7-methyl-8,14-dioxa-10,19,20,23-tetraazatetracyclo[13.5.2.1^2,6.0^18,21]tricosa-1(20),2,4,6(23),15,17,21-heptaen-9-one]
> 8.00 | Cc1ccc2cc1COC(=O)NCCCOc1ccc3[nH]nc-2c3c1 [Example 11, 5-methyl-8,14-dioxa-10,19,20-triazatetracyclo[13.5.2.1^2,6.0^18,21]tricosa-1(20),2,4,6(23),15,17,21-heptaen-9-one]
> 8.00 | COCCOc1cc2cc(c1)-c1n[nH]c3ccc(cc13)OCCCNC(=O)OC2 [Example 70, 4-(2-methoxyethoxy)-8,14-dioxa-10,19,20-triazatetracyclo[13.5.2.1^2,6.0^18,21]tricosa-1(20),2,4,6(23),15,17,21-heptaen-9-one]
> 8.00 | C[C@@H]1CCNC(=O)OCc2cccc(c2)-c2n[nH]c3ccc(nc23)O1 [Example 157, (13R)-13-methyl-8,14-dioxa-10,19,20,22-tetraazatetracyclo[13.5.2. 1^2,6.0^18,21]tricosa-1(20),2(23),3,5,15,17,21-heptaen-9-one]
> 8.00 | CC1OC(=O)NCC[C@@H](C)Oc2ccc3[nH]nc(c3c2)-c2ccnc1n2 (single isomer, unassigned) [Example 131, (7R,13R)- or (7S,13R)-7,13-dimethyl-8,14-dioxa-5,10,19,20,23-penta azatetracyclo[13.5.2.1^2,6.0^18,21]tricosa-1(20),2,4,6(23),15,17,21-heptaen-9-one]
7.00 to 8.00 | C[C@H]1OC(=O)NCCCOc2ccc3[nH]nc(c3c2)-c2cc(F)cc1c2 (single isomer, unassigned) [Example 108, (7R)- or (7S)-4-fluoro-7-methyl-8,14-dioxa-10,19,20-triazatetracyclo[13.5.2.1^2,6.0^18,21]tricosa-1(20),2,4,6(23),15,17,21-heptaen-9-one]
> 8.00 | O=C1NCCCOc2ccc3[nH]nc(c3c2)-c2ccn(c2)CCO1 [Example 99, 8,14-dioxa-5,10,19,20-tetraazatetracyclo[13.5.2.1^2,5.0^18,21]tricosa-1(20),2(23),3,15(22),16,18(21)-hexaen-9-one]
> 8.00 | C[C@@H]1CCNC(=O)OCc2cncc(c2)-c2n[nH]c3ccc(nc23)O1 [Example 164, (13R)-13-methyl-8,14-dioxa-4,10,19,20,22-pentaazatetracyclo[13.5.2. 1^2,6.0^18,21]tricosa-1(20),2(23),3,5,15,17,21-heptaen-9-one]
> 8.00 | C[C@@H]1CCNC(=O)OCc2cccc(c2)-c2n[nH]c3cc(F)c(cc23)O1 [Example 132, (13R)-16-fluoro-13-methyl-8,14-dioxa-10,19,20-triazatetracyclo[13.5.2.1^2,6.0^18,21]tricosa-1(20),2,4,6(23),15,17,21-heptaen-9-one]
> 8.00 | COCC1CCOc2ccc3[nH]nc(c3c2)-c2cccc(c2)COC(=O)N1 (centres unmarked) [Example 83, 11-(methoxymethyl)-8,14-dioxa-10,19,20-triazatetracyclo[13.5.2.1^2,6.0^18,21]tricosa-1(20),2(23),3,5,15(22),16,18(21)-heptaen-9-one]
> 8.00 | C[C@@H]1CCNC(=O)OCCn2cc(cc2C#N)-c2n[nH]c3ccc(cc23)O1 [Example 151, (13R)-13-methyl-9-oxo-8,14-dioxa-5,10,19,20-tetraazatetracyclo[13.5.2. 1^2,5.0^18,21]tricosa-1(20),2(23),3,15(22),16,18(21)-hexaene-4-carbonitrile]
> 8.00 | Cc1cc2cc(c1)-c1n[nH]c3ccc(cc13)OCCCN(C)C(=O)OC2 [Example 54, 4,10-dimethyl-8,14-dioxa-10,19,20-triazatetracyclo[13.5.2.1^2,6.0^18,21]tricosa-1(20),2,4,6(23),15,17,21-heptaen-9-one]
> 8.00 | O=C1NC[C@H](F)COc2ccc3[nH]nc(c3c2)-c2cccc(c2)CO1 [Example 169, (12S)-12-fluoro-8,14-dioxa-10,19,20-triazatetracyclo[13.5.2.1^2,6.0^18,21]tricosa-1(20),2(23),3,5,15(22),16,18(21)-heptaen-9-one]
7.00 to 8.00 | CC(C)C1COC(=O)NCCCOc2ccc3[nH]nc(c3c2)-c2cnn1c2 (centres unmarked) [Example 112, 6-(propan-2-yl)-8,14-dioxa-4,5,10,19,20-pentaazatetracyclo[13.5.2.1^2,5.0^18,21]tricosa-1(20),2(23),3,15(22),16,18(21)-hexaen-9-one]
7.00 to 8.00 | C[C@@H]1CCNC(=O)OCc2ccnc(n2)-c2n[nH]c3ccc(cc23)O1 [Example 140, (13R)-13-methyl-8,14-dioxa-3,10,19,20,23-pentaazatetracyclo[13.5.2.1^2,6.0^18,21]tricosa-1(20),2,4,6(23),15,17,21-heptaen-9-one]
> 8.00 | O=C1NCCCOc2ccc3[nH]nc(c3c2)-c2cc(cc(N3CCC(N4CCCC4)CC3)c2)CO1 [Example 34, 4-[4-(pyrrolidin-1-yl)piperidin-1-yl]-8,14-dioxa-10,19,20-triazatetracyclo[13.5.2.1^2,6.0^18,21]tricosa-1(20),2,4,6(23),15,17,21-heptaen-9-one]
> 8.00 | C[C@@H]1CCNC(=O)OCCn2cc(cn2)-c2n[nH]c3ccc(cc23)O1 [Example 97, (13R)-13-methyl-8,14-dioxa-4,5,10,19,20-pentaazatetracyclo[13.5.2.1^2,5.0^18,21]tricosa-1(20),2(23),3,15,17,21-hexaen-9-one]
> 8.00 | Cc1c(F)cc2cc1COC(=O)NCCCOc1ccc3[nH]nc-2c3c1 [Example 28, 4-fluoro-5-methyl-8,14-dioxa-10,19,20-triazatetracyclo[13.5.2.1^2,6.0^18,21]tricosa-1(20),2,4,6(23),15,17,21-heptaen-9-one]
> 8.00 | C[C@@H]1CCNC(=O)OCc2nccc(n2)-c2n[nH]c3ccc(cc23)O1 [Example 105, (13R)-13-methyl-8,14-dioxa-5,10,19,20,23-pentaazatetracyclo[13.5.2.1^2,6.0^18,21]tricosa-1(20),2,4,6(23),15,17,21-heptaen-9-one]
